How the values were obtained:
Magnaporthe grisea = assay: whole plant or invertebrate; type: in vivo; details: 250 ppm drug solution sprayed on test plant
Alternaia brassicicola = assay: Test Example C: Alternaria sooty spot on cabbage; type: in vivo; details: 250 ppm drug solution sprayed on test plant
Source text: Seeds of a test plant (cabbage variety: Shikidori) were planted and cultivated until the cotyledons extended.
<Control Value> Control value=100{1−(n/3)}

Puccinia recondita = assay: Test Example E: Brown rust on wheat; type: in vivo; details: 250 ppm drug solution sprayed on test plant
Phytophthora infestans = assay: whole plant or invertebrate; type: in vivo; details: 250 ppm drug solution sprayed on test plant
Botrytis cinerea = assay: Test Example B: Gray mold on tomato; details: 250 ppm drug solution sprayed on test plant
Plasmopara viticola = assay: Test Example G: Downy mildew on vine; details: 250 ppm drug solution sprayed (2.5 ml/pot), grape Neomuscat, 7 to 10 days after inoculation
[1] = test system: Colletotrichum orbiculare; assay: Test Example H: Anthracnose on cucumber; details: 250 ppm drug solution sprayed (2.5 ml/pot), cucumber Sagami Hanjiro, 6 to 10 days after inoculation
[2] = test system: Blumeria graminis f. sp. hordei; assay: Test Example D: Powdery mildew on barley; details: 250 ppm drug solution sprayed on test plant

| Compound | Test A control value (Magnaporthe grisea) | Test C control value (Alternaia brassicicola) | Test E control value (Puccinia recondita) | Test F control value (Phytophthora infestans) | Test B control value (Botrytis cinerea) | Test G control value (Plasmopara viticola) | Test H control value [1] | Test D control value [2] |
| --- | --- | --- | --- | --- | --- | --- | --- | --- |
| CCCc1ccc(=O)n(CC)c1-c1c(F)cccc1F [compound 426] | H (more than 50% control value) | H (more than 50% control value) | L (50% or less control value) | L (50% or less control value) | H (more than 50% control value) | L (50% or less control value) | H (more than 50% control value) | L (50% or less control value) |
| CCCc1ccc(=S)n(CC)c1-c1c(F)cc(F)cc1F [compound 427] | L (50% or less control value) | H (more than 50% control value) | L (50% or less control value) | L (50% or less control value) | H (more than 50% control value) | L (50% or less control value) | H (more than 50% control value) | L (50% or less control value) |
| CCCc1cc(Cl)c(=O)n(CC)c1-c1c(F)cccc1F [compound 428] | H (more than 50% control value) | H (more than 50% control value) | H (more than 50% control value) | L (50% or less control value) | H (more than 50% control value) | H (more than 50% control value) | H (more than 50% control value) | H (more than 50% control value) |
| CCCc1cc(Br)c(=O)n(CC)c1-c1c(F)cccc1F [compound 429] | H (more than 50% control value) | H (more than 50% control value) | H (more than 50% control value) | L (50% or less control value) | H (more than 50% control value) | H (more than 50% control value) | H (more than 50% control value) | H (more than 50% control value) |
| CCCc1cc(Cl)c(=S)n(CC)c1-c1c(F)cc(F)cc1F [compound 430] | H (more than 50% control value) | H (more than 50% control value) | H (more than 50% control value) | L (50% or less control value) | H (more than 50% control value) | L (50% or less control value) | H (more than 50% control value) | H (more than 50% control value) |
| CCCc1cc(Br)c(=O)n(C)c1-c1ccc(OC)cc1C [compound 431] | H (more than 50% control value) | H (more than 50% control value) | H (more than 50% control value) | L (50% or less control value) | H (more than 50% control value) | H (more than 50% control value) | H (more than 50% control value) | H (more than 50% control value) |
| COC(C)(c1cc(Br)c(=O)n(C)c1-c1c(F)cc(F)cc1F)C(C)C (stereo not drawn) [compound 432] | H (more than 50% control value) | H (more than 50% control value) | H (more than 50% control value) | L (50% or less control value) | H (more than 50% control value) | L (50% or less control value) | H (more than 50% control value) | H (more than 50% control value) |
| CCCc1cc(Cl)c(=O)n(C)c1-c1ccc(OC)cc1C [compound 433] | L (50% or less control value) | H (more than 50% control value) | H (more than 50% control value) | L (50% or less control value) | H (more than 50% control value) | H (more than 50% control value) | H (more than 50% control value) | H (more than 50% control value) |
| CCCc1cc(I)c(=O)n(CC)c1-c1c(F)cc(F)cc1F [compound 434] | H (more than 50% control value) | H (more than 50% control value) | H (more than 50% control value) | L (50% or less control value) | H (more than 50% control value) | L (50% or less control value) | H (more than 50% control value) | H (more than 50% control value) |
| CCCC1=C(c2c(F)cc(F)cc2F)N(CCC)C(=O)CC1 [compound 435] | L (50% or less control value) | H (more than 50% control value) | L (50% or less control value) | H (more than 50% control value) | L (50% or less control value) | L (50% or less control value) | L (50% or less control value) | L (50% or less control value) |
| CCCc1cc(I)c(=O)n(CC)c1-c1c(F)cc(OC)cc1F [compound 436] | H (more than 50% control value) | H (more than 50% control value) | H (more than 50% control value) | L (50% or less control value) | H (more than 50% control value) | L (50% or less control value) | H (more than 50% control value) | H (more than 50% control value) |
| CCCc1ccc(=O)n(CCC)c1-c1c(F)cc(F)cc1F [compound 437] | L (50% or less control value) | L (50% or less control value) | L (50% or less control value) | L (50% or less control value) | L (50% or less control value) | L (50% or less control value) | H (more than 50% control value) | H (more than 50% control value) |
| CCCc1ccc(=O)n(CC)c1-c1c(F)cc(O)cc1F [compound 438] | L (50% or less control value) | H (more than 50% control value) | H (more than 50% control value) | L (50% or less control value) | H (more than 50% control value) | L (50% or less control value) | L (50% or less control value) | L (50% or less control value) |
| CCCc1cc(Cl)c(=O)n(CCC)c1-c1c(F)cc(F)cc1F [compound 439] | H (more than 50% control value) | L (50% or less control value) | L (50% or less control value) | L (50% or less control value) | L (50% or less control value) | L (50% or less control value) | H (more than 50% control value) | L (50% or less control value) |
| CCCc1cc(Br)c(=O)n(CCC)c1-c1c(F)cc(F)cc1F [compound 440] | H (more than 50% control value) | L (50% or less control value) | L (50% or less control value) | L (50% or less control value) | L (50% or less control value) | L (50% or less control value) | L (50% or less control value) | L (50% or less control value) |
| CCCc1cc(I)c(=O)n(CCC)c1-c1c(F)cc(F)cc1F [compound 441] | L (50% or less control value) | L (50% or less control value) | L (50% or less control value) | L (50% or less control value) | L (50% or less control value) | L (50% or less control value) | H (more than 50% control value) | L (50% or less control value) |
| CCCc1ccc(=O)n(CCC)c1-c1c(F)cc(OC)cc1F [compound 442] | H (more than 50% control value) | L (50% or less control value) | H (more than 50% control value) | L (50% or less control value) | L (50% or less control value) | H (more than 50% control value) | H (more than 50% control value) | H (more than 50% control value) |
| CCCc1cc(Cl)c(=O)n(CCC)c1-c1c(F)cc(OC)cc1F [compound 443] | L (50% or less control value) | H (more than 50% control value) | H (more than 50% control value) | H (more than 50% control value) | H (more than 50% control value) | H (more than 50% control value) | H (more than 50% control value) | L (50% or less control value) |
